Marks after values point to notes of the source that are not given here.
Experiments:
[1] = Clinical toxicities in normal dogs; format: in vivo; conditions: 1 mg/kg, 24 hour PK collection timeframe
Protocol: LY5 was evaluated in two normal purpose-bred beagle dogs (female 8.8 kg; male 11.2 kg) receiving a single dose of 1mg/kg LY5 IV then orally by gavage 7 days later to establish the PK profile and assess the spectrum of clinical toxicities associated with LY5 administration. The oral dosing was repeated in the fed and fasted state. The starting dose was determined based on allometric scaling from the maximal tolerated dose studies performed in mice. Dogs were washed out for 30 days, and then given a dose of 25 mg in a capsule orally, followed by a 50 mg capsule dose 14 days later. Full PK sampling was performed over 24 hours following each dose of LY5. The dogs received LY5 and were used for the PK analysis but were not euthanized upon conclusion of the study.

K7M2 cells = assay: Sulforhodamine B cytotoxicity / cell viability assay; format: cell-based, murine; conditions: Mus musculus
Protocol: (§1) Murine K7M2 and human MG63.3 OS cells were treated with increasing concentrations of LY5 for 2 hrs or 7 hrs. Western blotting was performed for pSTAT3 and STAT3 as indicated above to confirm inhibition of STAT3 phosphorylation in the cell lines prior to initiation of the PuMA assay. In addition, a sulforhodamine B colorimetric assay was performed to assess the cytotoxicity of LY5 in K7M2 and MG63.3 cells as previously described.
(§2) MG63.3 and K7M2 cell lines were exposed to increasing concentrations of LY5 to determine the IC50 (A). Western blot analysis was performed to determine the dose and duration of LY5 exposure required to inhibit STAT3 phosphorylation (B-C). Serial imaging of fluorescently labeled MG63.3 and K7M2 cells was performed in ex vivo LY5 treated lung sections (D). Metastatic burden was quantified by evaluation of the percent tumor burden (mean normalized fluorescent area). Data are reported as the mean ± standard deviation. In MG 63.3 experiment, p < 0.0001 Kruskal-Wallis test, p < 0.05 10 μM vs control at days 7, 14, and 21, 10 μM vs 1 μM at days 7, 14, and 21, 50 μM vs control at days 7, 14, and 21, and 50 μM vs 10 μM at days 7, 14, and 21 post-test Dunn. In K7M2 experiment, p < 0.0001 Kruskal-Wallis test, p < 0.05 10 μM vs control at days 14 and 21, 10 μM vs 0.1 μM at days 14 and 21, and 10 μM vs 1 μM at days 14 and 21, post-test Dunn.

STAT3 = STAT3 (Homo sapiens, UniProt P40763); assay: pSTAT3 in pulmonary metastatic lesions, IHC and Western blotting; format: in vivo, mice; set-up: from tissue; host or cells: OS-17-luc lung metastases and OS-1 subcutaneous PDX tumours in C.B-17 scid mice; conditions: 20 mg/kg LY5 daily for 30 days; immunohistochemistry and Western blotting
Protocol: The ability of LY5 to inhibit pulmonary metastases was evaluated using a murine model of OS pulmonary metastasis. 8-week-old C.B-17 scid -/- female mice (Envigo, Madison, WI) received IV inoculation with 10^6 OS-17-luc cells expressing a luciferase reporter gene. OS-17-luc cells were generated by infecting OS-17 wild type cells with lentivirus containing the firefly luciferase under a CMV promoter (Cellomics Technology, Hallethorpe, MD) and selected with 0.5 ug/mL puromycin (Thermo Fisher Scientific, Waltham, MA). Beginning 24 hrs after inoculation, mice received vehicle (n = 10) or 20 mg/kg LY5 once daily via oral gavage (n = 9, one mouse died within 24 hrs after cell inoculation). LY5 was prepared by diluting a 40 mg/mL solution/slurry with a 50% propylene glycol/1% Tween 20 in water vehicle immediately before administration. Mice were treated with LY5 for 30 days, and bioluminescent imaging (after IP luciferin administration) was performed to determine pulmonary metastatic disease load. To investigate the pharmacodynamics (PD) effects of LY5, pSTAT3 (p-Tyr705, ab76315, Abcam) and total STAT3 (ab119352, Abcam) were evaluated in pulmonary metastatic lesions using IHC in lung samples from mice euthanized 24 hrs after their last dose.
(A-B) IHC staining of lung metastasis from mice treated with LY5. The metastatic tumor sections were stained with pSTAT3 or hematoxylin and eosin. […]

OS-1 = assay: Subcutaneous xenograft study; format: in vivo, mice; conditions: OS-1, 40 mg/kg twice per day for five days for four consecutive weeks
Protocol: C.B-17SC scid^-/- female mice (Taconic Farms, Germantown NY), were used to propagate subcutaneously implanted tumors. All mice were maintained under barrier conditions and experiments were conducted using protocols and conditions approved by the institutional animal care and use committee at University of Texas Health Science Center at San Antonio. Ten mice were used in each control or treatment group. Tumor volumes (cm^3) were determined and responses were determined using three activity measures as previously described.
The data were analyzed by using GraphPad Prism software (GraphPad Software, Inc., San Diego, CA). Data are presented as mean ± standard deviation. Data were analyzed by one-way analysis of variance (ANOVA), and Tukey’s post-test was used to assess differences between groups. Differences were considered statistically significant at p < 0.05. For in vivo xenograft models, an event was defined as four times the tumor volume at baseline similar to the PPTP criteria. […] The anti-tumor efficacy of LY5 was analyzed by using the statistical pipeline developed in PPTP [27].
Fig 6 Effects of LY5 are not mediated via STAT3 inhibition. […] After 72 hours of transfection, cells were harvested and analyzed for total (T) STAT3 and GAPDH protein expression by immunoblotting. […] Cell viability was then determined using Alamar Blue staining. […]

MG63.3 cells = assay: Sulforhodamine B cytotoxicity / cell viability assay; format: cell-based; conditions: Homo sapiens, MG-63.3
Protocol: as §1, §2

Sequence of STAT3 (P40763 whole entry): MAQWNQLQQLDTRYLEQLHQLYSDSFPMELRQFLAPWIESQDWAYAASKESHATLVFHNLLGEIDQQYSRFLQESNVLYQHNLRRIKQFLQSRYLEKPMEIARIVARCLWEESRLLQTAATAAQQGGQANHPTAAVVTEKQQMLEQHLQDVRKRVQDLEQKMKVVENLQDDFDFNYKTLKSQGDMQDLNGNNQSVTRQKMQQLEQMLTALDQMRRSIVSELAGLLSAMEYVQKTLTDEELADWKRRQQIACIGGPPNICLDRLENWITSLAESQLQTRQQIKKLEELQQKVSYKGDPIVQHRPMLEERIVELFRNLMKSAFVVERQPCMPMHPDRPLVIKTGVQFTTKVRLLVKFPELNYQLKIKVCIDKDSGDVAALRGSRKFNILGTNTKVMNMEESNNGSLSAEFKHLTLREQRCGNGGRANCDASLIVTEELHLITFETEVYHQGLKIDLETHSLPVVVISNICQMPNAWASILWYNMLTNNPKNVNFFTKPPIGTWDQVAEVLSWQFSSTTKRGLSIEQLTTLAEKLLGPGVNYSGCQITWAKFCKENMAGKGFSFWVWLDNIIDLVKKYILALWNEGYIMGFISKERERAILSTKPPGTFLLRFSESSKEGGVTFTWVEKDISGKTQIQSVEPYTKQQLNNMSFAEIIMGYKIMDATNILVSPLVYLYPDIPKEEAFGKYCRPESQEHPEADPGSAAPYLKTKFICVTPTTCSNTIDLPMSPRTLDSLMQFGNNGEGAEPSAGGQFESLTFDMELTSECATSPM

## NS(=O)(=O)c1cccc2c1C(=O)C=C(Nc1cccnc1)C2=O [LY5, 5,8-dioxo-6-(pyridin-3-ylamino)-5,8-dihydronaphthalene-1-sulfonamide]
[1]
  tolerability / acute clinical toxicities: well tolerated without apparent acute clinical toxicities
K7M2 cells
  IC50: 1.5 µM
STAT3
  STAT3 phosphorylation in pulmonary metastatic lesions: inhibited STAT3 phosphorylation
OS-1
  Group Response: PD2^f (Progressive disease 2, >50% TGI, >25% tumor progression)
  Survival (%): 90%
MG63.3 cells
  IC50: 3 µM
